According to ChEMBL document CHEMBL5120925, “Antagonistic Effect and In Vitro Activity of Dauricine on Glucagon Receptor” (J Nat Prod, 2022):
Activity calls are given as the source filed them. The rule behind the calls is not given here.

Columns and labels:
[1] = molecular target: Glucagon receptor (Homo sapiens) (UniProt P47871); assay: Antagonist activity at […] (unknown origin) expressed in HEK293 cells assessed as inhibition of GCG binding by measuring increase in fluorescence intensity at 0.1 mM incubated for 30 to 40 mins by FLUO-4 AM based inverted fluorescence microscopic imaging analysis; format: functional, cell-based; settings: filed as antagonist, time 30-40 min
Glucagon receptor (Homo sapiens), sequence (P47871 whole entry): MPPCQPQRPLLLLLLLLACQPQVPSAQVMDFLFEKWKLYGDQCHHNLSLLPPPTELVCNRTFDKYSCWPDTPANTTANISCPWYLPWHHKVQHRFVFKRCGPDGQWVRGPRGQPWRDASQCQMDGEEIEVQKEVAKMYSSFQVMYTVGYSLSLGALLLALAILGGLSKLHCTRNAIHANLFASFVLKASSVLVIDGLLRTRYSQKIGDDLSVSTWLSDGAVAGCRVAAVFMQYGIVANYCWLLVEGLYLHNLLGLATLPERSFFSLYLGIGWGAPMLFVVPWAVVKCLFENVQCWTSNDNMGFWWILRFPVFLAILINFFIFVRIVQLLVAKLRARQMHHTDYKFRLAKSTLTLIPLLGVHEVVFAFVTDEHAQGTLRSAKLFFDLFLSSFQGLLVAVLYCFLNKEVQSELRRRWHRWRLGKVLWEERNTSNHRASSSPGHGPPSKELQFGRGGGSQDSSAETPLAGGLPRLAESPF

[2] = Cytotoxicity against HEK293 cells assessed as inhibition of cell growth incubated for 24 hrs by MTT assay; format: toxicity, cell-based; settings: human
[3] = molecular target: Glucagon receptor (Homo sapiens) (UniProt P47871); assay: Antagonist activity at GCGR (unknown origin) expressed in HEK293 cells assessed as inhibition of GCG binding by measuring increase in fluorescence intensity at 10 uM incubated for 30 to 40 mins by FLUO-4 AM fluorescence based flow cytometric analysis; format: functional, cell-based; settings: filed as antagonist, time 30-40 min

| Activity [1] | Activity [3] | Molecule | IC50 at 24 h [2] [µM] |
| --- | --- | --- | --- |
| Active |  | H-SQGTFTSEYSKYLDSRRAQDFVQWL-NH2 |  |
|  | Active | COc1cc2c(cc1OC)[C@@H](Cc1ccc(Oc3cc(C[C@H]4c5cc(OC)c(OC)cc5CCN4C)ccc3O)cc1)N(C)CC2 | 10.6 |
